# Data: patent US12448394B2, “Heterocyclic pyrazole derivatives as type III receptor tyrosine kinase inhibitors” (DEVELOPMENT CENTER FOR BIOTECHNOLOGY, priority 2019, dated 2025)
# Experiments:
# [1] = system: Molm-14 human acute myeloid leukemia cell with FLT3-ITD mutation; test: Molm-14 cell proliferation assay (CellTiter 96); assay type: cell-based; conditions: Homo sapiens; Molm-14 cells, 72 hours treatment, CellTiter96; read-out: anti-proliferation activity Molm-14 (FLT3-ITD), IC50 ranking
# In short: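 Molm-14 (FLT3-ITD AML) cells in RPMI 1640 with 10% heat-inactivated FBS were seeded at 25000 cells/well, incubated overnight at 37° C, 5% CO2, then treated with increasing compound concentrations for 72 hours. Viability was read as absorbance at 490 nm after 2˜4 hours with CellTiter96 AQueous One reagent.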
# [2] = system: A375 melanoma cell with BRAF V600E mutation; test: A375 cell proliferation assay (counter screen); assay type: cell-based, human; conditions: Homo sapiens, A-375, A375 cells, 72 hours treatment, CellTiter96, read-out: anti-proliferation activity A375 BRAF V600E, IC50 ranking
# In short: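 A375 cells (BRAF V600E) seeded at 2000 cells/well in DMEM with 10% FBS, settled overnight at 37° C, 5% CO2, then exposed to increasing compound concentrations for 72 hours. Viability read by MTS-type CellTiter96 AQueous reagent, absorbance at 490 nm after 2–4 hours.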
# [3] = biological target: T1, FLT3-D835Y mutant kinase (Homo sapiens, UniProt P36888, D835Y); test: FLT3-D835Y mutant kinase assay (AlphaScreen); assay type: biochemical; conditions: read-out: Ranking of IC50 values, FLT3-D835Y
# T1 construct: purchased SignalChem
# T1 sequence (P36888 27-993 D835Y): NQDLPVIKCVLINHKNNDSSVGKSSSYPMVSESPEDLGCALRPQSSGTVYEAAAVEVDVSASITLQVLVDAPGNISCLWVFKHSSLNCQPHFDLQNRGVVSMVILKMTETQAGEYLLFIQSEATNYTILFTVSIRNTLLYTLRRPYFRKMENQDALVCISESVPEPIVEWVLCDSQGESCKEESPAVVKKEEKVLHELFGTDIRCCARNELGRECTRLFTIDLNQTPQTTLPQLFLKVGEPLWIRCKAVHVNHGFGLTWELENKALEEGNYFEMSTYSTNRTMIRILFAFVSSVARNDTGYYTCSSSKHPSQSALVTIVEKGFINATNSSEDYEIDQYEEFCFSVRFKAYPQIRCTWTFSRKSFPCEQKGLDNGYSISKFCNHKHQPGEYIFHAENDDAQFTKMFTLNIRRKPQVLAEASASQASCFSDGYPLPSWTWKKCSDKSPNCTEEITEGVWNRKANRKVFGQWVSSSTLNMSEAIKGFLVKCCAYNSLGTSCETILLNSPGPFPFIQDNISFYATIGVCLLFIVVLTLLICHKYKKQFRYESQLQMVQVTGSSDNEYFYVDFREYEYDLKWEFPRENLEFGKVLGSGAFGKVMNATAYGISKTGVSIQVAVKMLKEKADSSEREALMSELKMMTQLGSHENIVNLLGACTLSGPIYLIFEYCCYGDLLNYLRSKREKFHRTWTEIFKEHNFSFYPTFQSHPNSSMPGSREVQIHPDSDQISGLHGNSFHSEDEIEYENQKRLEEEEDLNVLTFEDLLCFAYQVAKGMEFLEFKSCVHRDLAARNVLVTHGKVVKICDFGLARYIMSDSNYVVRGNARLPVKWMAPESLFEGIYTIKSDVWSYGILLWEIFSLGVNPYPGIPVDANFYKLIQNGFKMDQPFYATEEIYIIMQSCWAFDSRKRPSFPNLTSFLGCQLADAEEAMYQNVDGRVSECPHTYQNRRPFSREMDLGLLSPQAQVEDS
# In short: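 Recombinant FLT3-D835Y (1 ng) phosphorylated biotin-poly(Glu4:Tyr1) at 10 μM ATP, pH 7.0 MOPS buffer with 10 mM MgCl2, for 30 min at 30 °C, stopped with EDTA. Product was read by AlphaScreen. IC50 came from serial dilutions run in duplicate.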
# [4] = biological target: T2, MET kinase (Homo sapiens, UniProt P08581); test: MET kinase assay (AlphaScreen, counter screen); assay type: biochemical; conditions: read-out: Ranking of IC50 values, MET
# T2 construct: purchased SignalChem
# T2 sequence (P08581 25-1390): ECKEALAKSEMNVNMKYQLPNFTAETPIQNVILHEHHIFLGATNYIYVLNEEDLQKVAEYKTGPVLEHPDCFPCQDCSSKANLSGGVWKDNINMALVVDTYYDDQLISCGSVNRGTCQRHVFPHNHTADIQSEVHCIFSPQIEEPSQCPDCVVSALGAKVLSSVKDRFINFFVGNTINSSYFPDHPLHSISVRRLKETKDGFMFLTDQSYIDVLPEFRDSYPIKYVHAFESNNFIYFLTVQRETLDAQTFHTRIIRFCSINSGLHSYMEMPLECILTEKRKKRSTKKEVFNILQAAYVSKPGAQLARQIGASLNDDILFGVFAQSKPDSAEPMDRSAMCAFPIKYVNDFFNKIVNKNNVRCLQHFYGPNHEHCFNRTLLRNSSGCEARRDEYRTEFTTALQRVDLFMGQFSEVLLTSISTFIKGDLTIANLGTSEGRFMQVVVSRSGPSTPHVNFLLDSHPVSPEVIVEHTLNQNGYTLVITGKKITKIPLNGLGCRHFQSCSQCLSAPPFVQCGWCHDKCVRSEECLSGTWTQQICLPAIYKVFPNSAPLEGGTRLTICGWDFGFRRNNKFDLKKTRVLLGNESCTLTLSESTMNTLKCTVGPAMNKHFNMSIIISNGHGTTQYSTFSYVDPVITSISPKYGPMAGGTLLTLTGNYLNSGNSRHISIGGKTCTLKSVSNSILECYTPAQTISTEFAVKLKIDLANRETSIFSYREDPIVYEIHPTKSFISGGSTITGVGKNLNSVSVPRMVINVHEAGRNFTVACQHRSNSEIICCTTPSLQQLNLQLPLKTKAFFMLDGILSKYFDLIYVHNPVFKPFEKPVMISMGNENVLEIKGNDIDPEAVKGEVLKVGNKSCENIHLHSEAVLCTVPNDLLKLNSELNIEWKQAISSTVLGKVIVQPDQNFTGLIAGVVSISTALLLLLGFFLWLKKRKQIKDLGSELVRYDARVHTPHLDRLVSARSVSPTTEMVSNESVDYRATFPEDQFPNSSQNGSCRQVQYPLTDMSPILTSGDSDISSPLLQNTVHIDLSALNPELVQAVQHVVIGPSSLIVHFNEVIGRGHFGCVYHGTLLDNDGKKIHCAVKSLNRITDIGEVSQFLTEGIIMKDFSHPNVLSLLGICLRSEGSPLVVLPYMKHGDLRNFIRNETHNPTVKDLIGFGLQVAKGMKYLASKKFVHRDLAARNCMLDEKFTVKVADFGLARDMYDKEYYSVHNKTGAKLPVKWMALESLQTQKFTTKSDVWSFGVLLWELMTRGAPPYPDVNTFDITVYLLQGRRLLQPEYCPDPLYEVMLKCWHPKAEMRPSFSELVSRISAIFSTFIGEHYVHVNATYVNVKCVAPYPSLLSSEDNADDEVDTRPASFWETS
# In short: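 Recombinant MET kinase (1 ng) phosphorylated biotinylated poly(Glu4:Tyr1) with […] ATP (so in the source) in MOPS pH 7.0 buffer with 10 mM MgCl2, 45 min at 30 °C, stopped with EDTA. Product read by AlphaScreen; IC50 from serial dilutions run in duplicate.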
SMILES,IC50 [1] [nM],IC50 [2] [nM],IC50 [3] [nM],IC50 [4] [nM]
"Cn1ncc2ccc(-c3n[nH]c4c3Cc3sc(-c5csc(C(=O)N6CCOCC6)c5)cc3-4)cc21 [Compound 48, (4-(3-(1-methyl-1H-indazol-6-yl)-1,4-dihydro-thieno[2′,3′:4,5]cyclopenta [1,2-c]pyrazol-6-yl)thiophen-2-yl) (morpholino)methanone]",< 30,> 10000,< 1,> 1000
"CN(C)C(=O)c1ccc(-c2cc3c(s2)Cc2c(-c4ccc5cnn(C)c5c4)n[nH]c2-3)cc1 [Compound 49, N,N-dimethyl-4-(3-(1-methyl-1H-indazol-6-yl)-1,4-dihydrothieno [2′,3′:4,5]cyclopenta [1,2-c]pyrazol-6-yl) benzamide]",< 30,> 10000,< 1,> 1000
"CN(C)S(=O)(=O)c1ccc(-c2cc3c(s2)Cc2c(-c4ccc5cnn(C)c5c4)n[nH]c2-3)cc1 [Compound 50, N,N-dimethyl-4-(3-(1-methyl-1H-indazol-6-yl)-1,4-dihydrothieno [2′,3′:4,5]cyclopenta [1,2-c]pyrazol-6-yl) benzenesulfonamide]",30 to 100,> 10000,< 1,> 1000
"Cn1ncc2ccc(-c3n[nH]c4c3Cc3sc(-c5ccc(CN6CCOCC6)s5)cc3-4)cc21 [Compound 51, 4-((5-(3-(1-methyl-1H-indazol-6-yl)-1,4-dihydro-thieno[2′,3′:4,5]cyclopenta [1,2-c]pyrazol-6-yl)thiophen-2-yl)methyl) morpholine]",30 to 100,> 10000,< 1,> 1000
"Cn1ncc2ccc(-c3n[nH]c4c3Cc3sc(-c5csc(CN6CCOCC6)c5)cc3-4)cc21 [Compound 52, 4-((4-(3-(1-methyl-1H-indazol-6-yl)-1,4-dihydro-thieno[2′,3′:4,5]cyclopenta [1,2-c]pyrazol-6-yl)thiophen-2-yl)methyl) morpholine]",30 to 100,> 10000,< 1,> 1000
"Cn1ncc2ccc(-c3n[nH]c4c3Cc3sc(-c5cc(F)c(CN6CCOCC6)c(F)c5)cc3-4)cc21 [Compound 53, 4-(2,6-difluoro-4-(3-(1-methyl-1H-indazol-6-yl)-1,4-dihydrothieno [2′,3′:4,5]cyclopenta [1,2-c]pyrazol-6-yl)benzyl)morpholine]",100 to 300,> 10000,1 to 10,> 1000
"C[C@@H]1CN(Cc2ccc(-c3cc4c(s3)Cc3c(-c5ccc6cnn(C)c6c5)n[nH]c3-4)cc2)C[C@H](C)O1 [Compound 54, (2S,6R)-2,6-dimethyl-4-(4-(3-(1-methyl-1H-indazol-6-yl)-1,4-dihydro-thieno[2′,3′:4,5]cyclopenta [1,2-c]pyrazol-6-yl)benzyl)morpholine]",30 to 100,> 10000,< 1,> 1000
"Cn1ncc2ccc(-c3n[nH]c4c3Cc3sc(-c5cc(C(=O)N6CCOCC6)ccn5)cc3-4)cc21 [Compound 56, (2-(3-(1-methyl-1H-indazol-6-yl)-1,4-dihydro-thieno[2′,3′:4,5]cyclopenta [1,2-c]pyrazol-6-yl)pyridin-4-yl)(morpholino) methanone]",30 to 100,> 10000,1 to 10,> 1000
"Cn1ncc2ccc(-c3n[nH]c4c3Cc3sc(C5=CCN(C(=O)N6CCOCC6)CC5)cc3-4)cc21 [Compound 57, (4-(3-(1-methyl-1H-indazol-6-yl)-1,4-dihydro-thieno[2′,3′:4,5]cyclopenta [1,2-c]pyrazol-6-yl)-3,6-dihydropyridin-1(2H)-yl) (morpholino)methanone]",< 30,> 10000,< 1,> 1000
"Cn1ncc2ccc(-c3n[nH]c4c3Cc3sc(C5CCN(C(=O)OC(C)(C)C)CC5)cc3-4)cc21 [Compound 58, tert-butyl-4-(3-(1-methyl-1H-indazol-6-yl)-1,4-dihydrothieno[2′,3′:4,5]cyclopenta[1,2-c]pyrazol-6-yl)piperidine-1-carboxylate]",100 to 300,> 10000,1 to 10,> 1000
"Cn1ncc2ccc(-c3n[nH]c4c3Cc3sc(-c5ccc(CN6CCOCC6=O)cc5)cc3-4)cc21 [Compound 59, 4-(4-(3-(1-methyl-1H-indazol-6-yl)-1,4-dihydro-thieno[2′,3′:4,5]cyclopenta [1,2-c]pyrazol-6-yl)benzyl)morpholin-3-one]",< 30,> 10000,< 1,> 1000
"Cn1ncc2ccc(-c3n[nH]c4c3Cc3sc(-c5csc(C(=O)N6CCOCC6)n5)cc3-4)cc21 [Compound 60, (4-(3-(1-methyl-1H-indazol-6-yl)-1,4-dihydro-thieno[2′,3′:4,5]cyclopenta [1,2-c]pyrazol-6-yl)thiazol-2-yl)(morpholino) methanone]",< 30,1000 to 10000,< 1,> 1000
"Cn1ncc2ccc(-c3n[nH]c4c3Cc3sc(-c5ccc(CN6CCCCC6=O)cc5)cc3-4)cc21 [Compound 61, 1-(4-(3-(l-methyl-1H-indazol-6-yl)-1,4-dihydro-thieno[2′,3′:4,5]cyclopenta [1,2-c]pyrazol-6-yl)benzyl)piperidin-2-one]",< 30,> 10000,< 1,> 1000
"Cn1ncc2ccc(-c3n[nH]c4c3Cc3sc(-c5ccc(CN6CCNC(=O)C6)cc5)cc3-4)cc21 [Compound 63, 4-(4-(3-(1-methyl-1H-indazol-6-yl)-1,4-dihydro-thieno[2′,3′:4,5]cyclopenta [1,2-c]pyrazol-6-yl)benzyl)piperazin-2-one]",< 30,> 10000,1 to 10,> 1000
"Cn1ncc2ccc(-c3n[nH]c4c3Cc3sc(-c5ccc(CN6CCCC6=O)cc5)cc3-4)cc21 [Compound 64, 1-(4-(3-(1-methyl-1H-indazol-6-yl)-1,4-dihydro-thieno[2′,3′:4,5]cyclopenta [1,2-c]pyrazol-6-yl)benzyl)pyrrolidin-2-one]",< 30,> 10000,1 to 10,> 1000
"CC1C(=O)N(C)CCN1Cc1ccc(-c2cc3c(s2)Cc2c(-c4ccc5cnn(C)c5c4)n[nH]c2-3)cc1 (stereo not drawn) [Compound 65, 1,3-dimethyl-4-(4-(3-(1-methyl-1H-indazol-6-yl)-1,4-dihydrothieno [2′,3′:4,5]cyclopenta [1,2-c]pyrazol-6-yl)benzyl)piperazin-2-one]",< 30,> 10000,< 1,> 1000
"Cn1ncc2ccc(-c3n[nH]c4c3Cc3sc(-c5ccc(CCN6CCOCC6=O)cc5)cc3-4)cc21 [Compound 66, 4-(4-(3-(1-methyl-1H-indazol-6-yl)-1,4-dihydro-thieno[2′,3′:4,5]cyclopenta [1,2-c]pyrazol-6-yl)phenethyl)morpholin-3-one]",< 30,> 10000,< 1,> 1000
"Cn1ncc2ccc(-c3n[nH]c4c3Cc3sc(-c5ccc(CN6CCC(F)(F)C6)cc5)cc3-4)cc21 [Compound 67, 6-(4-((3,3-difluoro-pyrrolidin-1-yl)methyl)phenyl)-3-(1-methyl-1H-indazol-6-yl)-1,4-dihydro-thieno[2′,3′:4,5]cyclopenta [1,2-c]pyrazole]",100 to 300,> 10000,1 to 10,> 1000
